Test results from patent publication US20260274829A1, “NEW E3 UBIQUITIN LIGASE LIGAND, PROTEIN DEGRADATION AGENT AND USE THEREOF” (GLUETACS THERAPEUTICS (SHANGHAI) CO., LTD., priority 2023, published 2026).
Where two headings read alike, the source gives them in different places.

Key:
IKZF2 = target: T1, IKZF2 (Homo sapiens, UniProt Q96SW2+Q9UKS7); assay: Western blot degradation of IKZF2 in hPBMC; format: cell-based
T1 construct: endogenous in cells; host or cells: hPBMC
Method: (§1) Conventional Western blot assay was performed to evaluate the effects of the compounds of the present disclosure on the expression of target proteins in cells.
(§2) • (1) Cell Seeding and Protein Harvesting: The selected cells were processed according to the cell seeding procedure and protein harvesting procedure in Table III-2.
(§3) • (2) To the collected supernatant, 5×SDS sample loading buffer was added, followed by denaturation at 95° C. for 5 minutes. The denatured samples were then separated by SDS-PAGE electrophoresis on a polyacrylamide gel. Proteins were transferred to a nitrocellulose membrane ([…] NC membrane), blocked with blocking buffer at room temperature for 1 hour, and subjected to antibody incubation and development procedures according to the antibody manufacturer's instructions (Cell Signaling Technology).
(§4) Half-Maximal Degradation Concentration value (the drug concentration required for degrading proteins by 50%, abbreviated as DC50) reads method: comparing the grayscale values of Western blot bands from drug-treated samples with those from blank DMSO-treated controls, and identifying the drug concentration range at which the grayscale value is half that of the DMSO-treated control bands.
(§5) DC50 values can be calculated using ImageJ software to measure grayscale values of Western blot bands from drug-treated samples. The concentration-response curve is fitted to estimate the drug concentration corresponding to half the grayscale value.
(§6) Target protein remaining (0%) refers to the percentage of target protein remaining in hPBMC cells after treatment with protein degrader compounds.
(§7) Calculation method for target protein remaining (0%): Use ImageJ software to measure grayscale values of Western blot bands from drug (protein degrader)-treated samples. The grayscale value of drug-treated bands is divided by that of internal control protein bands, and the resulting quotient is normalized to obtain the relative percentage of remaining target protein after protein degrader treatment.

CK1a = target: T2, CK1a (Homo sapiens, UniProt P48729+Q96SW2); assay: Western blot degradation of CK1a in hPBMC; format: cell-based
T2 construct: endogenous in cells; host or cells: hPBMC
T2 sequence (P48729 whole entry): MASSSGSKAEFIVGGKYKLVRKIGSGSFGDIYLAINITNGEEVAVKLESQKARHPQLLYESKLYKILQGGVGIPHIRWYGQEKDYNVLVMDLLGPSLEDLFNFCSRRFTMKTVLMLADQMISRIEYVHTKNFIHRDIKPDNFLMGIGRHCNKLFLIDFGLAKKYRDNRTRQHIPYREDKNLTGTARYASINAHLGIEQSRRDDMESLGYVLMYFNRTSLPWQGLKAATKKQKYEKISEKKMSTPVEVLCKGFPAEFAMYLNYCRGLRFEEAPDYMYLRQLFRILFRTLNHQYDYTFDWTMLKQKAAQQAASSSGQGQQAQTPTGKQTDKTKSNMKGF
T2 sequence (Q96SW2 whole entry): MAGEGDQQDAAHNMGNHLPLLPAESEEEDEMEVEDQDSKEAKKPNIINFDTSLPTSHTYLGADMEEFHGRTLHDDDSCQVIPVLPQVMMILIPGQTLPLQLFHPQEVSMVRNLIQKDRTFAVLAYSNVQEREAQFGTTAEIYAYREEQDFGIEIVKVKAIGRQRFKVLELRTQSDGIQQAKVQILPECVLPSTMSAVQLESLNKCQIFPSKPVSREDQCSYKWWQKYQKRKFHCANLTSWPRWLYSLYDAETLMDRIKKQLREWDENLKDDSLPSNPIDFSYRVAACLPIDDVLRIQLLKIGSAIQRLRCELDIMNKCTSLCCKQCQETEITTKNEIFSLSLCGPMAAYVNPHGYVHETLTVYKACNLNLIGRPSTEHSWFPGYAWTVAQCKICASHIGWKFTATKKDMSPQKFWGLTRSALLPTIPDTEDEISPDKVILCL
T2 sequence (Q16531 whole entry partner): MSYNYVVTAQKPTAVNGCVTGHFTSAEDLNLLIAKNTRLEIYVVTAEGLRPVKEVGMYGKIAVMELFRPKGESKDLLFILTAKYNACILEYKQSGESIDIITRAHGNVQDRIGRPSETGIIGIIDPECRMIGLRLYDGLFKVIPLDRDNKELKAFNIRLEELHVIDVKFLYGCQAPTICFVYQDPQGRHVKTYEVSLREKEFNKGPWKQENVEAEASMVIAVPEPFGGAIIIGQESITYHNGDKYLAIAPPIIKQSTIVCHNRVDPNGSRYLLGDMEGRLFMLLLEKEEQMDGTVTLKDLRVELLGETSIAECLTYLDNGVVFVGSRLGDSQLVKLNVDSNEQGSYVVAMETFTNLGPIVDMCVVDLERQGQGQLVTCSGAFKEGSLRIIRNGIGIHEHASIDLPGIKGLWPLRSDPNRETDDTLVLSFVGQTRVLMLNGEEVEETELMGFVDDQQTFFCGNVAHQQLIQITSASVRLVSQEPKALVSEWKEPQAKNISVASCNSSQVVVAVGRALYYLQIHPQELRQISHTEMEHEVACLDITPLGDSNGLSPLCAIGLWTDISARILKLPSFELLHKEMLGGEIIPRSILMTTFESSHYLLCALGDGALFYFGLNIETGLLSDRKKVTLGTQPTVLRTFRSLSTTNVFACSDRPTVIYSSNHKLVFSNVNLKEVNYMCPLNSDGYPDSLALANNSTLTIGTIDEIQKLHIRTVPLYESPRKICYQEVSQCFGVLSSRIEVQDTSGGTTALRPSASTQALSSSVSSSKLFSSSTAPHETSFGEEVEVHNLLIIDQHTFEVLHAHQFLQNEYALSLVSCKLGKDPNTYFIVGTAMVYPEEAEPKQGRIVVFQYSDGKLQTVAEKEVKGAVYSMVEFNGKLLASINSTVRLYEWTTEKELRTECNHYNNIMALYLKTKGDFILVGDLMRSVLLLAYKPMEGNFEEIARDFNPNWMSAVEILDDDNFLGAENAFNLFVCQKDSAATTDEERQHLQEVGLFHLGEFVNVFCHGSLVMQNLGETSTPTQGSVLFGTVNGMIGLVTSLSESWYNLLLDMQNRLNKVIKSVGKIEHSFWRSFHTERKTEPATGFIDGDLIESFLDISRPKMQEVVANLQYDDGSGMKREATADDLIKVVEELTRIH
Method: as §1, §2, §3, §4, §5, §6, §7

IKZF3 = target: T3, IKZF3 (Homo sapiens, UniProt Q96SW2+Q9UKT9); assay: Western blot degradation of IKZF3 in hPBMC; format: cell-based
T3 construct: endogenous in cells; host or cells: hPBMC
T3 sequence (Q9UKT9 whole entry): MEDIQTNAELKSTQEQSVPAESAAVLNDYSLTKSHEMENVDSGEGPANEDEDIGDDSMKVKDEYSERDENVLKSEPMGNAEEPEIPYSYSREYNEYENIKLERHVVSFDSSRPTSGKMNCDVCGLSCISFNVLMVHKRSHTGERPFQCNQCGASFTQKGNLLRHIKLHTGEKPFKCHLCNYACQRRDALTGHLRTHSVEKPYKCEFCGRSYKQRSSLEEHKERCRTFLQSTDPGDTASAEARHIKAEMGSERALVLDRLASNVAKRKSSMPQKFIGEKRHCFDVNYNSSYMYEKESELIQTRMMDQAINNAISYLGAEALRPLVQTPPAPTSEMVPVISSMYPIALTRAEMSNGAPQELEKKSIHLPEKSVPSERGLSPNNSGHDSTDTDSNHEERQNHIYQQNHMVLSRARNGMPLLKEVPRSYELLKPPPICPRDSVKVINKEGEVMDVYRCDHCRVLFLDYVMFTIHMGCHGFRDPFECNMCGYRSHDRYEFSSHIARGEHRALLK
T3 sequence (Q96SW2 whole entry): as the sequence (Q96SW2 whole entry) above
T3 sequence (Q16531 whole entry partner): as the sequence (Q16531 whole entry partner) above
Method: as §1, §2, §3, §4, §5, §6, §7

IKZF1 = target: T4, IKZF1 (Homo sapiens, UniProt Q13422+Q96SW2); assay: Western blot degradation of IKZF1 in hPBMC; format: cell-based
T4 construct: endogenous in cells; host or cells: hPBMC
T4 sequence (Q13422 whole entry): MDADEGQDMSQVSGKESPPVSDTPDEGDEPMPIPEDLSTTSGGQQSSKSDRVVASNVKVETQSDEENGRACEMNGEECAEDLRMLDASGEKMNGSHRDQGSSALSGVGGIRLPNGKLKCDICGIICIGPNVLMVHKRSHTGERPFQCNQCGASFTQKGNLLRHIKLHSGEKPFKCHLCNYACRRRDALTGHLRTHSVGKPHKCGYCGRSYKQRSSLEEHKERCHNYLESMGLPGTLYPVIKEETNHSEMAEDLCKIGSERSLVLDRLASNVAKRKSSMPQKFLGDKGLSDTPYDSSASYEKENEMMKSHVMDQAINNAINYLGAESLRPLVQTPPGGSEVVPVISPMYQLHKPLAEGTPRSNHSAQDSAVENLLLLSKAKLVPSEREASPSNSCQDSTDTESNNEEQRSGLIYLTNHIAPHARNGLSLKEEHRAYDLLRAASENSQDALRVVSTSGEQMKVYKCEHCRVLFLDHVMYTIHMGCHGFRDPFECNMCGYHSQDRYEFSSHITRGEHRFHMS
T4 sequence (Q96SW2 whole entry): as the sequence (Q96SW2 whole entry) above
T4 sequence (Q16531 whole entry partner): as the sequence (Q16531 whole entry partner) above
Method: as §1, §2, §3, §4, §5, §6, §7

GSPT1 = target: T5, GSPT1 (Homo sapiens, UniProt P15170+Q96SW2); assay: Western blot degradation of GSPT1 in hPBMC; format: cell-based
T5 construct: endogenous in cells; host or cells: hPBMC
T5 sequence (P15170 whole entry): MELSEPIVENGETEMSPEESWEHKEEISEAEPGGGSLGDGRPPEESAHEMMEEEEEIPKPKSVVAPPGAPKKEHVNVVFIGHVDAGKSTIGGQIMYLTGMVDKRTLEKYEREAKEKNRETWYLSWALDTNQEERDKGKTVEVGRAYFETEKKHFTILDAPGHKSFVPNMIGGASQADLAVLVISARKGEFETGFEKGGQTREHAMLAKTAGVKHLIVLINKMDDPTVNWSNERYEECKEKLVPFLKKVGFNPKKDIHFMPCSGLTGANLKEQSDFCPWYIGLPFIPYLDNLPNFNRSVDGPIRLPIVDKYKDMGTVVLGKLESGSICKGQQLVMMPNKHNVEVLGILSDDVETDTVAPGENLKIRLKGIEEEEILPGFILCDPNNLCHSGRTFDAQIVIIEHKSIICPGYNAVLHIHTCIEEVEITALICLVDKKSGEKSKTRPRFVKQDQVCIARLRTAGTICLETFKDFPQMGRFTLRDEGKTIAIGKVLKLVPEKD
T5 sequence (Q96SW2 whole entry): as the sequence (Q96SW2 whole entry) above
T5 sequence (Q16531 whole entry partner): as the sequence (Q16531 whole entry partner) above
Method: as §1, §2, §3, §4, §5, §6, §7

WEE1 = target: T6, WEE1 (Homo sapiens, UniProt P30291+Q96SW2); assay: Western blot degradation of WEE1 in hPBMC; format: cell-based
T6 construct: endogenous in cells; host or cells: hPBMC
Method: as §1, §2, §3, §4, §5, §6, §7

[1] = target: T7, human Cereblon WT GST-tagged protein (Homo sapiens, UniProt Q96SW2); assay: CRBN binding, HTRF CEREBLON BINDING kit
T7 construct: purchased CISBIO 64BDCRBNPEH
T7 sequence (Q96SW2 whole entry): as the sequence (Q96SW2 whole entry) above
How it was run: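 HTRF competition in which test compounds displace a Thalidomide-Re tracer from GST-tagged human Cereblon WT, detected with a GST Eu antibody. Incubation lasted 3 hours at room temperature, with emission read at 620 and 665 nm. Inhibition rate was derived from 665/620 ratios relative to blank and solvent control wells.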

[2] = CRBN binding, HTRF CEREBLON BINDING kit

T1 sequence (Q9UKS7 whole entry): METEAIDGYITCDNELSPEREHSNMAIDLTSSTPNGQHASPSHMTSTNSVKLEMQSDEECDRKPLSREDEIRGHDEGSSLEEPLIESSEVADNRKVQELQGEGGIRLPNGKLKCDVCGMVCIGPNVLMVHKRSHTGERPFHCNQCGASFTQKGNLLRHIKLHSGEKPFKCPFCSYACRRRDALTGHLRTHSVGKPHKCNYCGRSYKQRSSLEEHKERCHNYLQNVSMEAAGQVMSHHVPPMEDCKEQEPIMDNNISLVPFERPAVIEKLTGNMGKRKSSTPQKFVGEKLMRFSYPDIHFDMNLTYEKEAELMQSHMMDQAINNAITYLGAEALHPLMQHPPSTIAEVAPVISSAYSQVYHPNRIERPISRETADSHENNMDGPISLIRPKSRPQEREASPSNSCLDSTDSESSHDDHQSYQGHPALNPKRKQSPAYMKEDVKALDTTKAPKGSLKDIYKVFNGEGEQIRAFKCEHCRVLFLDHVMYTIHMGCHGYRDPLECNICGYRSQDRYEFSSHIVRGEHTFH
T1 sequence (Q96SW2 whole entry): as the sequence (Q96SW2 whole entry) above
T1 sequence (Q16531 whole entry partner): as the sequence (Q16531 whole entry partner) above

IC50 [1, 2] | Structure (SMILES) | Degradation of substrate protein IKZF2 (substrate protein remaining %) (IKZF2) | Degradation of substrate protein CK1a (substrate protein remaining %) (CK1a) | Degradation of substrate protein IKZF3 (substrate protein remaining %) (IKZF3) | Degradation of substrate protein IKZF1 (substrate protein remaining %) (IKZF1) | Degradation of substrate protein GSPT1 (substrate protein remaining %) (GSPT1) | Degradation of substrate protein WEE1 (substrate protein remaining %) (WEE1) | also measured
 | O=C1CCC(c2cncc(CCl)c2)C(=O)N1 (stereo not drawn) [GT-06991, 3-(5-(chloromethyl)pyridin-3-yl)piperidine-2,6-dione] | A (A is defined as 0% ≤ substrate protein remaining % ≤ 80%) | B (B is defined as substrate protein remaining % > 80%) | B (B is defined as substrate protein remaining % > 80%) | B (B is defined as substrate protein remaining % > 80%) | B (B is defined as substrate protein remaining % > 80%) | B (B is defined as substrate protein remaining % > 80%) | 
 | O=C1CCN(c2ccc(CCl)cn2)C(=O)N1 [GT-07009, 1-(5-(chloromethyl)pyridin-2-yl)dihydropyrimidine-2,4(1H,3H)-dione] | B (B is defined as substrate protein remaining % > 80%) | A (A is defined as 0% ≤ substrate protein remaining % ≤ 80%) | B (B is defined as substrate protein remaining % > 80%) | B (B is defined as substrate protein remaining % > 80%) | B (B is defined as substrate protein remaining % > 80%) | B (B is defined as substrate protein remaining % > 80%) | 
 | O=C1CCC(c2ccc(CO)nc2)C(=O)N1 (stereo not drawn) [GT-07010, 3-(6-(hydroxymethyl)pyridin-3-yl)piperidine-2,6-dione] | B (B is defined as substrate protein remaining % > 80%) | A (A is defined as 0% ≤ substrate protein remaining % ≤ 80%) | A (A is defined as 0% ≤ substrate protein remaining % ≤ 80%) | B (B is defined as substrate protein remaining % > 80%) | A (A is defined as 0% ≤ substrate protein remaining % ≤ 80%) | B (B is defined as substrate protein remaining % > 80%) | 
 | NCc1ccc(N2CCC(=O)NC2=O)nc1 [GT-07012, 1-(5-(aminomethyl)pyridin-2-yl)dihydropyrimidine-2,4(1H,3H)-dione] | B (B is defined as substrate protein remaining % > 80%) | B (B is defined as substrate protein remaining % > 80%) | A (A is defined as 0% ≤ substrate protein remaining % ≤ 80%) | B (B is defined as substrate protein remaining % > 80%) | A (A is defined as 0% ≤ substrate protein remaining % ≤ 80%) | A (A is defined as 0% ≤ substrate protein remaining % ≤ 80%) | 
 | O=C1CCN(c2cncc(CCl)c2)C(=O)N1 [GT-07047, 1-(5-(chloromethyl)pyridin-3-yl)dihydropyrimidine-2,4(1H,3H)-dione] | A (A is defined as 0% ≤ substrate protein remaining % ≤ 80%) | A (A is defined as 0% ≤ substrate protein remaining % ≤ 80%) | A (A is defined as 0% ≤ substrate protein remaining % ≤ 80%) | A (A is defined as 0% ≤ substrate protein remaining % ≤ 80%) | B (B is defined as substrate protein remaining % > 80%) | B (B is defined as substrate protein remaining % > 80%) | 
 | NCc1ccc(N2CCC(=O)NC2=O)cn1 [GT-07048, 1-(6-(aminomethyl)pyridin-3-yl)dihydropyrimidine-2,4(1H,3H)-dione] | A (A is defined as 0% ≤ substrate protein remaining % ≤ 80%) | A (A is defined as 0% ≤ substrate protein remaining % ≤ 80%) | A (A is defined as 0% ≤ substrate protein remaining % ≤ 80%) | A (A is defined as 0% ≤ substrate protein remaining % ≤ 80%) | A (A is defined as 0% ≤ substrate protein remaining % ≤ 80%) | B (B is defined as substrate protein remaining % > 80%) | 
< 0.5 µM | COc1cc(N2CCN(Cc3cc(C4CCC(=O)NC4=O)cnc3F)CC2)ccc1Nc1ncc(Cl)c(Nc2ccccc2P(C)(C)=O)n1 (stereo not drawn) [GT-07710, 3-(5-((4-(4-((5-chloro-4-((2-(dimethylphosphoryl)phenyl)amino)pyrimidin-2-yl)amino)-3-methoxyphenyl)piperazin-1-yl)methyl)-6-fluoropyridin-3-yl)piperidine-2,6-dione] |  |  |  |  |  |  | 
0.5 to 1 µM | COc1cc(N2CCN(Cc3ccc(C4CCC(=O)NC4=O)cn3)CC2)ccc1Nc1ncc(Cl)c(Nc2ccccc2P(C)(C)=O)n1 (stereo not drawn) [GT-07713, 3-(6-((4-(4-((5-chloro-4-((2-(dimethylphosphoryl)phenyl)amino)pyrimidin-2-yl)amino)-3-methoxyphenyl)piperazin-1-yl)methyl)pyridin-3-yl)piperidine-2,6-dione] |  |  |  |  |  |  | 
< 0.5 µM | COc1cc(N2CCN(Cc3cncc(C4CCC(=O)NC4=O)c3)CC2)ccc1Nc1ncc(Cl)c(Nc2ccccc2P(C)(C)=O)n1 (stereo not drawn) [GT-07714, 3-(5-((4-(4-((5-chloro-4-((2-(dimethylphosphoryl)phenyl)amino)pyrimidin-2-yl)amino)-3-methoxyphenyl)piperazin-1-yl)methyl)pyridin-3-yl)piperidine-2,6-dione] |  |  |  |  |  |  | 
 | COc1cc2nn(C3CCN(Cc4cc(N5CCC(=O)NC5=O)cnc4F)CC3)cc2cc1NC(=O)c1cccc(C(F)(F)F)c1 [GT-07781, N-(2-(1-((5-(2,4-dioxotetrahydropyrimidin-1(2H)-yl)-2-fluoropyridin-3-yl)methyl)piperidin-4-yl)-6-methoxy-2H-indazol-5-yl)-3-(trifluoromethyl)benzamide] |  |  |  |  |  |  | Inhibition rate (%) at 0.5 μM ([1]; CRBN binding, HTRF, compound at 0.5 μM): a1 (10% < a1 ≤ 20%); Inhibition rate (%) at 2 μM ([1]; CRBN binding, HTRF, compound at 2 μM): a5 (53% < a5 ≤ 60%)
 | CC1(C)CCC(c2ccc(Cl)cc2)=C(CN2CCN(c3ccc(C(=O)NS(=O)(=O)c4ccc(N[C@H](CCN5CC6CCC(C5)N6Cc5ccc(C6CCC(=O)NC6=O)cc5)CSc5ccccc5)c(S(=O)(=O)C(F)(F)F)c4)cc3)CC2)C1 (stereo partly drawn) [GT-07858, 4-(4-((4′-chloro-4,4-dimethyl-3,4,5,6-tetrahydro-[1,1′-biphenyl]-2-yl)methyl)piperazin-1-yl)-N-((4-(((2R)-4-(8-(4-(2,6-dioxopiperidin-3-yl)benzyl)-3,8-diazabicyclo[3.2.1]octan-3-yl)-1-(phenylthio)butan-2-yl)amino)-3-((trifluoromethyl)sulfonyl)phenyl)sulfonyl)benzamide] |  |  |  |  |  |  | inhibition at 0.5 µM ([1]; CRBN binding, HTRF, compound at 0.5 μM, read-out: Inhibition rate (%) at 0.5 μM): 30 to 40%; inhibition at 2 µM ([1]; CRBN binding, HTRF, compound at 2 μM, read-out: Inhibition rate (%) at 2 μM): 60 to 80%
> 10 µM | C=CC(=O)N1CCC(c2ccc(C(N)=O)c(-c3ccc(Oc4ccccc4)cc3)n2)CC1 [Orelabrutinib, reference compound] |  |  |  |  |  |  | 
> 10 µM | CN(C)C/C=C/C(=O)Nc1cc2c(Nc3ccc(F)c(Cl)c3)ncnc2cc1O[C@H]1CCOC1 [afatinib] |  |  |  |  |  |  | 
> 10 µM | C#Cc1cccc(Nc2ncnc3cc(OCCOC)c(OCCOC)cc23)c1 [erlotinib, reference compound] |  |  |  |  |  |  | 
 | C=CC(=O)Nc1cc(Nc2nccc(-c3cn(C)c4ccccc34)n2)c(OC)cc1N(C)CCN(C)C [osimertinib, reference compound] |  |  |  |  |  |  | IC50 [1]: > 10 µM

Structure (SMILES) | IC50 [1, 2] | Degradation of substrate protein IKZF2 (substrate protein remaining %) (IKZF2) | Degradation of substrate protein CK1a (substrate protein remaining %) (CK1a) | Degradation of substrate protein IKZF3 (substrate protein remaining %) (IKZF3) | Degradation of substrate protein IKZF1 (substrate protein remaining %) (IKZF1) | Degradation of substrate protein GSPT1 (substrate protein remaining %) (GSPT1) | Degradation of substrate protein WEE1 (substrate protein remaining %) (WEE1) | also measured
C=CC(=O)N1CCC[C@@H](n2nc(-c3ccc(Oc4ccccc4)cc3)c3c(N)ncnc32)C1 [ibrutinib, Ibrutinib, reference compound] | > 10 µM |  |  |  |  |  |  | 
